# Literature values as cited in paper PMC9574858, “Linker-Dependent Folding Rationalizes PROTAC Cell Permeability” (Journal of Medicinal Chemistry, 2022).
# Target: CRBN (Homo sapiens, UniProt Q96SW2)
# Set-up: method as in PMID 29358579
# CRBN, sequence (Q96SW2 whole entry): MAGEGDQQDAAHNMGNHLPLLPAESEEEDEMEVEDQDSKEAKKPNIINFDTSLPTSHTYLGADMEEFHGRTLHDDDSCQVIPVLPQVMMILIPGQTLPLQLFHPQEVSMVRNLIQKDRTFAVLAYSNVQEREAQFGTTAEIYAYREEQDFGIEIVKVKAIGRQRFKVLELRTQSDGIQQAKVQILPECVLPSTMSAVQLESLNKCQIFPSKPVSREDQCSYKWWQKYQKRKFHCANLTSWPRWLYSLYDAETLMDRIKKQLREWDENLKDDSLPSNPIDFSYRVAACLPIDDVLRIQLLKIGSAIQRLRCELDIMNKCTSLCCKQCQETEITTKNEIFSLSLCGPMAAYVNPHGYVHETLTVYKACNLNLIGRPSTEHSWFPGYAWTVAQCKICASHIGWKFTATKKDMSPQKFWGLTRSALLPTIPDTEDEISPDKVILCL
smiles,measurement,value
"O=C1CC[C@H](N2C(=O)c3ccccc3C2=O)C(=O)N1 [S-form of thalidomide, thalidomide]",affinity for CRBN compared with the R-form,1 order of magnitude higher
